Data published in patent US10988523B2, “Modified lipidated Relaxin B chain peptides and their therapeutic use” (Sanofi, priority 2018, dated 2021).
Like-named read-outs stand apart in the source and are kept apart here. *1 amine or outer side, *2 acyl side, *3 side chain or, on linkers, in order; H or OH if unused. Where a SMILES comes first, the peptide text is derived from it. Side-chain parts run from the residue outwards. [ ]: non-standard residue; d: D form. The star is where a group is joined. PEG12 = NCCOCCOCCOCCOCCOCCOCCOCCOCCOCCOCCOCCOCCC(=O)O; γGlu = O=C(O)[C@H](CCC(=O)[*:2])N[*:1]; Stearoyl = CCCCCCCCCCCCCCCCCC(=O)*; Palmitoyl = CCCCCCCCCCCCCCCC(=O)*; αMeK = C[C@](N)(CCCCN)C(=O)O; Nle = CCCC[C@H](N)C(=O)O; AEEA = NCCOCCOCC(=O)O; Aib = CC(C)(N)C(=O)O

Experiments:
[1] = Stability testing of peptides in human plasma or blood; type: in vitro ADME; conditions: 37° C.; for Human Plasma stability % remaining T = 0: human plasma or blood, T = 0 (reference), 5 μM
Outline: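 Peptide at 5 µM final was incubated at 37 °C in heparinized rat or human plasma or blood, sampled up to 4 h, and extracted with acetonitrile/1% TFA. HPLC peak areas relative to t0 give % remaining peptide.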

[2] = Pharmacokinetic (PK) determination after i.v. or s.c. administration to rats; type: in vivo, Sprague Dawley rats; conditions: Rat PK; for T½ / C0 / half-life: 1 mg/kg i.v.; for C0 / half-life: iv; for C0: extrapolated plasma concentration at t=0, read-out: C0; for Cmax / Tmax: 3 mg/kg s.c.; for bioavailability: subcutaneous; for half-life: read-out: T½ (converted)
Outline: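 Non-compartmental analysis of plasma LC/MS data (protein precipitation, BLQ taken as zero) gave T½, C0 (i.v.), Cmax/Tmax (s.c.) and F% from dose-corrected AUCs. Dosing: 3 mg/kg s.c. or 1 mg/kg i.v. in PBS to Sprague Dawley rats, purity- and salt-corrected.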

[3] = biological target: T1, RXFP1 (Homo sapiens, UniProt Q9HBX9); assay: OVCAR5 cAMP assay (HTRF), RXFP1 agonist activity; type: cell-based; conditions: for EC50: OVCAR5 cells, cAMP HTRF, read-out: EC50 (nM), OVCAR 5 cells (cAMP); for Emax: OVCAR-5, maximal cAMP relative to H2-relaxin maximum (100%), read-out: EMax, OVCAR 5 cells (cAMP)
T1 construct: OVCAR5 cells expressing endogenous RXFP1; endogenous in cells; host or cells: OVCAR5 cells
T1 sequence (Q9HBX9 1-757): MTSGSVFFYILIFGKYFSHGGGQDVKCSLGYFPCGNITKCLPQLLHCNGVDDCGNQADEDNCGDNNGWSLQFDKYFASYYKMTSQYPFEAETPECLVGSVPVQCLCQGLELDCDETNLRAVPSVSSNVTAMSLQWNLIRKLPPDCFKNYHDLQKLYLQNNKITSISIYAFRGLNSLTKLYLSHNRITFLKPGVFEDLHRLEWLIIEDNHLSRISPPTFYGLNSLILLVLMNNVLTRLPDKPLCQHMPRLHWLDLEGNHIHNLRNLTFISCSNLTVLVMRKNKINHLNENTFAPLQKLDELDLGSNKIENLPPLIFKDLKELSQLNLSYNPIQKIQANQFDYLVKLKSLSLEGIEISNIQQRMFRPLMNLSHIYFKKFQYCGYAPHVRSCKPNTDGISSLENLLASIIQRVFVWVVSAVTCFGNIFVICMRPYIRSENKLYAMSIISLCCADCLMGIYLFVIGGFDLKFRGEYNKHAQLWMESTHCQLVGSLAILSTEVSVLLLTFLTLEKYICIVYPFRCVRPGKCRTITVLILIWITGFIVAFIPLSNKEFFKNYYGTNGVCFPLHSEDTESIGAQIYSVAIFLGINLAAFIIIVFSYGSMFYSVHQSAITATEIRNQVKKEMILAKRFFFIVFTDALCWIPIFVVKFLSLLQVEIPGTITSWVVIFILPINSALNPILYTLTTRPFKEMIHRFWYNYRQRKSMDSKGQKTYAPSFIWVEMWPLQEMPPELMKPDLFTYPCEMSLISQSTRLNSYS
Outline: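 cAMP accumulation readout: after 1 mM IBMX for 40 min, endogenous-RXFP1 OVCAR5 cells got rising peptide concentrations without FCS, 30 min, 37° C, then lysis with HTRF cAMP reagents. Nonlinear regression gave EC50; Emax expressed relative to H2-relaxin maximum, same occasion.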

[4] = human plasma, read-out: Human Plasma stability % remaining 1 h
[5] = human plasma, read-out: Human Plasma stability % remaining 4 h
[6] = Sprague Dawley, plasma, 3 mg/kg s.c. vs 1 mg/kg i.v., dose-corrected AUC ratio
[7] = whole blood, human blood, read-out: Human stability in blood % remaining 1 h
[8] = whole blood, human blood, read-out: Human stability in blood % remaining 4 h

| SMILES | Human Plasma stability % remaining T = 0 [1] [%] | remaining at 1 h, 5 µM [1, 4] [%] | remaining at 4 h, 5 µM [1, 5] [%] | T½ [2] [h] | C0 ([2]; Sprague Dawley) [nM] | Cmax ([2]; Sprague Dawley, plasma, sc) [nM] | Tmax ([2]; Sprague Dawley, plasma, sc) [h] | bioavailability [2, 6] [%] | EC50 [3] [nM] | Emax [3] [%] | half-life ([2]; Sprague Dawley, plasma) [h] | Cmax [2] [nM] | F % ([2]; 3 mg/kg s.c. vs 1 mg/kg i.v., dose-corrected AUC ratio) [%] | remaining at 1 h, 5 µM [1, 7] [%] | remaining at 4 h, 5 µM [1, 8] [%] |
| --- | --- | --- | --- | --- | --- | --- | --- | --- | --- | --- | --- | --- | --- | --- | --- |
| CCCCCCCCCCCCCCCCCC(=O)N[C@@H](CCC(=O)N[C@@H](CCC(=O)N[C@@H](CCC(=O)NCCCC[C@H](NC(=O)CCOCCOCCOCCOCCOCCOCCOCCOCCOCCOCCOCCOCCNC(=O)[C@H](CCCCNC(C)=O)NC(=O)[C@H](CCCCN)NC(=O)[C@H](CCCNC(=N)N)NC(=O)C(C)(C)NC(=O)[C@H](CO)NC(=O)[C@H](Cc1c[nH]c2ccccc12)NC(=O)[C@@H](NC(=O)[C@H](CO)NC(=O)[C@H](CCCC)NC(=O)CNC(=O)[C@H](CCC(=O)O)NC(=O)C(C)(C)NC(=O)C(C)(C)NC(=O)[C@@H](NC(=O)[C@H](CCCCNC(C)=O)NC(=O)[C@H](C)NC(=O)[C@H](CCCNC(=N)N)NC(=O)[C@@H](NC(=O)[C@H](CCCCN)NC(=O)[C@H](CCC(=O)O)NC(=O)[C@H](CCCNC(=N)N)NC(=O)CNC(=O)[C@H](CCC(=O)O)NC(=O)[C@H](CC(C)C)NC(C)=O)C(C)C)[C@@H](C)CC)[C@@H](C)O)C(N)=O)C(=O)O)C(=O)O)C(=O)O [compound 33] (Ac-LEGREKVRAK(Ac)I[Aib][Aib]EG[Nle]STWS[Aib]RKK(Ac)[PEG12]K([γGlu-γGlu-γGlu-Stearoyl])-NH2) | 100 | 99 | 96 | 4.30 | 4200 | 2500 | 8 | 60 | 0.61 | 100 |  |  |  |  |  |
| CCCCCCCCCCCCCCCC(=O)N[C@@H](CCC(=O)N[C@@H](CCC(=O)N[C@@H](CCC(=O)NCCOCCOCC(=O)NCCOCCOCC(=O)NCCCC[C@H](NC(=O)[C@H](CCCCN)NC(=O)[C@H](CCCNC(=N)N)NC(=O)C(C)(C)NC(=O)[C@H](CO)NC(=O)[C@H](Cc1c[nH]c2ccccc12)NC(=O)[C@@H](NC(=O)[C@H](CO)NC(=O)[C@H](CCCC)NC(=O)CNC(=O)[C@H](CCC(=O)O)NC(=O)C(C)(C)NC(=O)C(C)(C)NC(=O)[C@@H](NC(=O)[C@H](CCC(N)=O)NC(=O)[C@H](C)NC(=O)[C@H](CCCNC(=N)N)NC(=O)[C@@H](NC(=O)[C@H](CCCCN)NC(=O)[C@H](CCC(=O)O)NC(=O)[C@H](CCCNC(=N)N)NC(=O)CNC(=O)[C@H](CCC(=O)O)NC(=O)[C@H](CC(C)C)NC(C)=O)C(C)C)[C@@H](C)CC)[C@@H](C)O)C(N)=O)C(=O)O)C(=O)O)C(=O)O [compound 58] (Ac-LEGREKVRAQI[Aib][Aib]EG[Nle]STWS[Aib]RKK([AEEA-AEEA-γGlu-γGlu-γGlu-Palmitoyl])-NH2) | 100 | 100 | 11 |  | 4020 | 1340 | 6 | 55 |  | 83 | 7.9 |  |  |  |  |
| CCCCCCCCCCCCCCCCCC(=O)N[C@@H](CCC(=O)N[C@@H](CCC(=O)N[C@@H](CCC(=O)NCCOCCOCC(=O)NCCOCCOCC(=O)NCCOCCOCC(=O)NCCCC[C@H](NC(=O)[C@H](CCCCNC(C)=O)NC(=O)[C@H](CCCCN)NC(=O)[C@H](CCCNC(=N)N)NC(=O)C(C)(C)NC(=O)[C@H](CO)NC(=O)[C@H](Cc1c[nH]c2ccccc12)NC(=O)[C@@H](NC(=O)[C@H](CO)NC(=O)[C@H](CCCC)NC(=O)CNC(=O)[C@H](CCC(=O)O)NC(=O)C(C)(C)NC(=O)C(C)(C)NC(=O)[C@@H](NC(=O)[C@H](CCCCNC(C)=O)NC(=O)[C@H](C)NC(=O)[C@H](CCCNC(=N)N)NC(=O)[C@@H](NC(=O)[C@H](CCCCN)NC(=O)[C@H](CCC(=O)O)NC(=O)[C@H](CCCNC(=N)N)NC(=O)CNC(=O)[C@H](CCC(=O)O)NC(=O)[C@H](CC(C)C)NC(C)=O)C(C)C)[C@@H](C)CC)[C@@H](C)O)C(N)=O)C(=O)O)C(=O)O)C(=O)O [compound 81] (Ac-LEGREKVRAK(Ac)I[Aib][Aib]EG[Nle]STWS[Aib]RKK(Ac)K([AEEA-AEEA-AEEA-γGlu-γGlu-γGlu-Stearoyl])-NH2) | 100 | 111 | 111 | 3.90 | 2600 |  | 8 |  | 0.22 | 84 |  | 1500 | 74 |  |  |
| CCCCCCCCCCCCCCCC(=O)N[C@@H](CCC(=O)N[C@@H](CCC(=O)N[C@@H](CCC(=O)N[C@@H](CCC(=O)NCCCC[C@H](NC(=O)COCCOCCNC(=O)COCCOCCNC(=O)COCCOCCNC(=O)COCCOCCNC(=O)[C@H](CCCCNC(C)=O)NC(=O)[C@H](C)NC(=O)[C@H](CCCNC(=N)N)NC(=O)[C@](C)(CCCCN)NC(=O)[C@H](CO)NC(=O)[C@H](Cc1ccccc1)NC(=O)[C@@H](NC(=O)[C@H](CO)NC(=O)[C@H](CCCC)NC(=O)CNC(=O)[C@H](CCC(=O)O)NC(=O)C(C)(C)NC(=O)C(C)(C)NC(=O)[C@@H](NC(=O)[C@H](CCCCNC(C)=O)NC(=O)[C@H](C)NC(=O)[C@H](CCCNC(=N)N)NC(=O)[C@@H](NC(=O)[C@H](CCCCN)NC(=O)[C@H](CCC(=O)O)NC(=O)[C@H](CCCNC(=N)N)NC(=O)CNC(=O)[C@H](CCC(=O)O)NC(=O)[C@H](CC(C)C)NC(C)=O)C(C)C)[C@@H](C)CC)[C@@H](C)O)C(N)=O)C(=O)O)C(=O)O)C(=O)O)C(=O)O [compound 150] (Ac-LEGREKVRAK(Ac)I[Aib][Aib]EG[Nle]STFS[αMeK]RAK(Ac)[AEEA][AEEA][AEEA][AEEA]K([γGlu-γGlu-γGlu-γGlu-Palmitoyl])-NH2) | 100 |  |  |  | 3600 | 2100 | 8 | 76 | 0.07 | 92 | 5.7 |  |  | 34 | 78 |
| CCCCCCCCCCCCCCCC(=O)N[C@@H](CCC(=O)N[C@@H](CCC(=O)N[C@@H](CCC(=O)N[C@@H](CCC(=O)NCCCC[C@H](NC(=O)COCCOCCNC(=O)COCCOCCNC(=O)COCCOCCNC(=O)COCCOCCNC(=O)[C@H](CCCCNC(C)=O)NC(=O)[C@H](C)NC(=O)[C@H](CCCNC(=N)N)NC(=O)[C@](C)(CCCCN)NC(=O)[C@H](CO)NC(=O)[C@H](Cc1ccccc1)NC(=O)[C@@H](NC(=O)[C@H](CO)NC(=O)[C@H](CCC(N)=O)NC(=O)CNC(=O)[C@H](CCC(=O)O)NC(=O)C(C)(C)NC(=O)C(C)(C)NC(=O)[C@@H](NC(=O)[C@H](CCCCNC(C)=O)NC(=O)[C@H](C)NC(=O)[C@H](CCCNC(=N)N)NC(=O)[C@@H](NC(=O)[C@H](CCCCN)NC(=O)[C@H](CCC(=O)O)NC(=O)[C@H](CCCNC(=N)N)NC(=O)CNC(=O)[C@H](CCC(=O)O)NC(=O)[C@H](CC(C)C)NC(C)=O)C(C)C)[C@@H](C)CC)[C@@H](C)O)C(N)=O)C(=O)O)C(=O)O)C(=O)O)C(=O)O [compound 170] (Ac-LEGREKVRAK(Ac)I[Aib][Aib]EGQSTFS[αMeK]RAK(Ac)[AEEA][AEEA][AEEA][AEEA]K([γGlu-γGlu-γGlu-γGlu-Palmitoyl])-NH2) | 100 |  |  |  | 7760 | 780 | 4 | 87 | 0.01 | 87 | 10 |  |  | 107 | 106 |
